From patent US20250145665A1, “MACROCYCLIC PEPTIDES USEFUL AS MODULATORS OF TNF ALPHA” (Bristol-Myers Squibb Company, priority 2023, published 2025)
Starred links: 1 amine or outer side, 2 acyl side, 3 side chain; linkers in the order of their positions; H or OH if unused. Positions of bridges follow the written chain, without caps; N, C: chain ends. Non-standard residues stand in square brackets, D forms with d. Residues, ends and D or L forms follow the SMILES beside them. ξ: configuration not given here. *: point of attachment. Bip(4'-NHCO-C6H4-3-CH2COOH) = N[C@@H](Cc1ccc(-c2ccc(NC(=O)c3cccc(CC(=O)O)c3)cc2)cc1)C(=O)O; X74 = Cn1nc(C(=O)Nc2ccc(-c3ccc(C[C@H](N[*:1])C(=O)[*:2])cc3)cc2)c2cccnc21; Bip(4'-NH) = O=C([C@H](Cc1ccc(-c2ccc(N[*:3])cc2)cc1)N[*:1])[*:2]; dArg(ω-(3-HO-benzyl)) = N=C(NCCC[C@@H](N)C(=O)O)NCc1cccc(O)c1; Indazole3carbonyl(1-CH2COOH) = O=C(O)Cn1nc(C(=O)*)c2ccccc21; Bip(4'-COOH) = N[C@@H](Cc1ccc(-c2ccc(C(=O)O)cc2)cc1)C(=O)O; Bip(4'-NHAc) = CC(=O)Nc1ccc(-c2ccc(C[C@H](N)C(=O)O)cc2)cc1; X27 = N=C(NCCC[C@@H](N[*:1])C(=O)[*:2])NCCc1ccc2c(c1)OCO2; Ala(imidazol-2-yl) = N[C@@H](Cc1ncc[nH]1)C(=O)O; Ala(morpholin-4-yl) = N[C@@H](CN1CCOCC1)C(=O)O; Benzoyl(3-OCH2COOH) = O=C(O)COc1cccc(C(=O)*)c1; Phe(3-CONH2) = NC(=O)c1cccc(C[C@H](N)C(=O)O)c1; Bip = N[C@@H](Cc1ccc(-c2ccccc2)cc1)C(=O)O; X81 = N[C@@H](Cc1ccc(OCC(=O)O)cc1)C(=O)*; Phe(2-Me) = Cc1ccccc1C[C@H](N)C(=O)O; Val(3-OH) = CC(C)(O)[C@H](N)C(=O)O; 2Pal = N[C@@H](Cc1ccccn1)C(=O)O; Tic = O=C(O)[C@@H]1Cc2ccccc2CN1; 2Thi = N[C@@H](Cc1cccs1)C(=O)O; Cha = N[C@@H](CC1CCCCC1)C(=O)O; Tle = CC(C)(C)[C@H](N)C(=O)O; Aze = O=C(O)[C@@H]1CCN1; ξP = O=C(O)C1CCCN1; Sar = CNCC(=O)O

molecular target: TNFα (Homo sapiens, UniProt P01375); assay: TNF-Induced HEK-Blue Assay; type: cell-based; settings: not given
Sequence (P01375 77-233 limits assumed): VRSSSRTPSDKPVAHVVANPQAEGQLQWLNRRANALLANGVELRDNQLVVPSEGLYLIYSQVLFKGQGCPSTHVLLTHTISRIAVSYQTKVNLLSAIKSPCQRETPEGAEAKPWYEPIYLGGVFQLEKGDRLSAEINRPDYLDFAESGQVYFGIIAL

SMILES | IC50 [µM]
CC(C)C[C@@H]1NC(=O)[C@H](CCCNC(=N)N)NC(=O)[C@H](C(C)C)NC(=O)[C@@H]2CCCN2C(=O)[C@H](C(C)C)NC(=O)[C@@H](CCCNC(=N)NCCc2ccc3c(c2)OCO3)NC(=O)[C@H](CC(=O)O)NC(=O)[C@@H]2CCCN2C(=O)CN(C)C(=O)[C@H](Cc2ccc(-c3ccc(NC(=O)c4nn(CC(=O)O)c5ccccc45)cc3)cc2)NC(=O)[C@H](Cc2ccc(-c3ccccc3)cc2)NC(=O)[C@H](CN2CCOCC2)NC(=O)CSC[C@@H](C(=O)NCC(N)=O)NC1=O [Example 408] ({CH2CO}-[Ala(morpholin-4-yl)][Bip][Bip(4'-NH)](Indazole3carbonyl(1-CH2COOH))[Sar]PD[X27]VPVRLCG-NH2; thioether N-13) | < 0.05
CC[C@H](C)[C@@H]1NC(=O)[C@@H]2CCCN2C(=O)[C@H]([C@@H](C)CC)NC(=O)[C@@H](CCCNC(=N)N)NC(=O)[C@H](CC(=O)O)NC(=O)[C@H](Cc2ccccn2)NC(=O)CN(C)C(=O)[C@H](Cc2ccc(-c3ccc(NC(=O)c4nn(CC(=O)O)c5ccccc45)cc3)cc2)NC(=O)[C@H](Cc2ccc(-c3ccccc3)cc2)NC(=O)[C@H](C(C)(C)C)NC(=O)CSC[C@@H](C(=O)NCC(N)=O)NC(=O)[C@H](CC(C)C)NC(=O)[C@H](Cc2cccc(C(N)=O)c2)NC1=O [Example 356] ({CH2CO}-[Tle][Bip][Bip(4'-NH)](Indazole3carbonyl(1-CH2COOH))[Sar][2Pal]D[dR]IPI[Phe(3-CONH2)]LCG-NH2; thioether N-13) | < 0.05

same assay, conditions: HEK-Blue-CD40L cells, NF-kB-driven secreted alkaline phosphatase reporter; TNFα 0.5 ng/ml; 18 h; read-out: TNF induced HEK-Blue assay IC50 value

IC50 [µM] | SMILES
0.05 to 0.2 | CC[C@H](C)[C@@H]1NC(=O)C2CCCN2C(=O)[C@H]([C@@H](C)CC)NC(=O)[C@@H](CCCNC(=N)N)NC(=O)[C@H](CC(=O)O)NC(=O)[C@H](Cc2ccccc2)NC(=O)CN(C)C(=O)[C@H](Cc2ccc(-c3ccc(NC(=O)[C@@H](N)Cc4ccc(OCC(=O)O)cc4)cc3)cc2)NC(=O)[C@H](Cc2ccc(-c3ccc(C(=O)O)cc3)cc2)NC(=O)[C@H](C(C)(C)C)NC(=O)CSC[C@@H](C(=O)NCC(N)=O)NC(=O)[C@H](CC(C)C)NC(=O)[C@H](Cc2ncc[nH]2)NC1=O (stereo partly drawn) [Example 421] ({CH2CO}-[Tle][Bip(4'-COOH)][Bip(4'-NH)](X81)[Sar]FD[dR]I[ξP]I[Ala(imidazol-2-yl)]LCG-NH2; thioether N-13)
< 0.05 | CC(C)C[C@@H]1NC(=O)[C@H](CCCNC(=N)N)NC(=O)[C@H](C(C)C)NC(=O)[C@@H]2CCCN2C(=O)[C@H](C(C)C)NC(=O)[C@@H](CCCNC(=N)N)NC(=O)[C@H](CC(=O)O)NC(=O)[C@@H]2CCCN2C(=O)CN(C)C(=O)[C@H](Cc2ccc(-c3ccc(NC(=O)c4nn(C)c5ncccc45)cc3)cc2)NC(=O)[C@H](Cc2ccc(-c3ccccc3)cc2)NC(=O)[C@H](CN2CCOCC2)NC(=O)CSC[C@@H](C(=O)NCC(N)=O)NC1=O [Example 347] ({CH2CO}-[Ala(morpholin-4-yl)][Bip][X74][Sar]PD[dR]VPVRLCG-NH2; thioether N-13)
0.05 to 0.2 | CC(C)C[C@@H]1NC(=O)[C@H](Cc2ccc(O)cc2)NC(=O)[C@H](C(C)C)NC(=O)[C@@H]2CCCN2C(=O)[C@H](C(C)C)NC(=O)[C@H](CCCNC(=N)N)NC(=O)[C@H](CC(=O)O)NC(=O)[C@H](Cc2ccc(O)cc2)NC(=O)CN(C)C(=O)[C@H](Cc2ccc(-c3ccccc3)cc2)NC(=O)[C@H](Cc2ccc(-c3ccccc3)cc2)NC(=O)[C@H](C(C)(C)O)NC(=O)CSC[C@@H](C(=O)NCC(N)=O)NC1=O [Example 50] ({CH2CO}-[Val(3-OH)][Bip][Bip][Sar]YDRVPVYLCG-NH2; thioether N-13)
0.2 to 2 | CC(C)C[C@@H]1NC(=O)[C@H](CCCNC(=N)N)NC(=O)[C@H](C(C)C)NC(=O)[C@@H]2CCCN2C(=O)[C@H](C(C)C)NC(=O)[C@@H](CCCNC(=N)N)NC(=O)[C@H](CC(=O)O)NC(=O)[C@@H]2CCCN2C(=O)CNC(=O)[C@H](Cc2ccc(-c3ccccc3)cc2)NC(=O)[C@H](Cc2ccc(-c3ccccc3)cc2)NC(=O)[C@H](CN2CCOCC2)NC(=O)CSC[C@@H](C(=O)NCC(N)=O)NC1=O [Example 130] ({CH2CO}-[Ala(morpholin-4-yl)][Bip][Bip]GPD[dR]VPVRLCG-NH2; thioether N-13)
< 0.05 | CC(=O)Nc1ccc(-c2ccc(C[C@@H]3NC(=O)[C@H](Cc4ccc(-c5ccccc5)cc4)NC(=O)[C@H](CN4CCOCC4)NC(=O)CSC[C@@H](C(=O)NCC(N)=O)NC(=O)[C@H](CC(C)C)NC(=O)[C@H](Cc4ccc(O)cc4)NC(=O)[C@H](C(C)C)NC(=O)[C@@H]4CCCN4C(=O)[C@H](C(C)C)NC(=O)[C@@H](CCCNC(=N)N)NC(=O)[C@H](CC(=O)O)NC(=O)[C@@H]4CCCN4C(=O)CN(C)C3=O)cc2)cc1 [Example 125] ({CH2CO}-[Ala(morpholin-4-yl)][Bip][Bip(4'-NHAc)][Sar]PD[dR]VPVYLCG-NH2; thioether N-13)
0.05 to 0.2 | CC(C)C[C@@H]1NC(=O)[C@H](Cc2cccs2)NC(=O)[C@H](C(C)C)NC(=O)[C@@H]2CCCN2C(=O)[C@H](C(C)C)NC(=O)[C@@H](CCCNC(=N)N)NC(=O)[C@H](CC(=O)O)NC(=O)[C@H](Cc2ccccn2)NC(=O)CN(C)C(=O)[C@H](Cc2ccc(-c3ccc(NC(=O)c4cccc(OCC(=O)O)c4)cc3)cc2)NC(=O)[C@H](Cc2ccc(-c3ccccc3)cc2)NC(=O)[C@H](CC2CCCCC2)NC(=O)CSC[C@@H](C(=O)NCC(N)=O)NC1=O [Example 616] ({CH2CO}-[Cha][Bip][Bip(4'-NH)](Benzoyl(3-OCH2COOH))[Sar][2Pal]D[dR]VPV[2Thi]LCG-NH2; thioether N-13)
0.2 to 2 | CC(C)C[C@@H]1NC(=O)[C@H](CCCNC(=N)N)NC(=O)[C@H](C(C)C)NC(=O)[C@@H]2CCCN2C(=O)[C@H](C(C)C)NC(=O)[C@H](CCCNC(=N)N)NC(=O)[C@H](CC(=O)O)NC(=O)[C@@H]2Cc3ccccc3CN2C(=O)CN(C)C(=O)[C@H](Cc2ccc(-c3ccccc3)cc2)NC(=O)[C@H](Cc2ccc(-c3ccccc3)cc2)NC(=O)[C@H](Cc2ccccc2)NC(=O)CSC[C@@H](C(=O)NCC(N)=O)NC1=O [Example 45] ({CH2CO}-F[Bip][Bip][Sar][Tic]DRVPVRLCG-NH2; thioether N-13)
0.05 to 0.2 | CC(=O)Nc1ccc(-c2ccc(C[C@@H]3NC(=O)[C@H](Cc4ccc(-c5ccc(C(=O)O)cc5)cc4)NC(=O)[C@H](CC4CCCCC4)NC(=O)CSC[C@@H](C(=O)NCC(N)=O)NC(=O)[C@H](CC(C)C)NC(=O)[C@H](Cc4ccccc4C)NC(=O)[C@H](C(C)C)NC(=O)[C@@H]4CCCN4C(=O)[C@H](C(C)C)NC(=O)[C@@H](CCCNC(=N)N)NC(=O)[C@H](CC(=O)O)NC(=O)[C@@H]4CCCN4C(=O)CN(C)C3=O)cc2)cc1 [Example 255] ({CH2CO}-[Cha][Bip(4'-COOH)][Bip(4'-NHAc)][Sar]PD[dR]VPV[Phe(2-Me)]LCG-NH2; thioether N-13)
0.05 to 0.2 | CC(=O)Nc1ccc(-c2ccc(C[C@@H]3NC(=O)[C@H](Cc4ccc(-c5ccc(C(=O)O)cc5)cc4)NC(=O)[C@H](CC4CCCCC4)NC(=O)CSC[C@@H](C(=O)NCC(N)=O)NC(=O)[C@H](CC(C)C)NC(=O)[C@H](Cc4ccc(O)cc4)NC(=O)[C@H](C(C)C)NC(=O)[C@@H]4Cc5ccccc5CN4C(=O)[C@H](C(C)C)NC(=O)[C@@H](CCCNC(=N)N)NC(=O)[C@H](CC(=O)O)NC(=O)[C@@H]4CCCN4C(=O)CN(C)C3=O)cc2)cc1 [Example 275] ({CH2CO}-[Cha][Bip(4'-COOH)][Bip(4'-NHAc)][Sar]PD[dR]V[Tic]VYLCG-NH2; thioether N-13)
0.2 to 2 | CC(C)C[C@@H]1NC(=O)[C@H](CCCNC(=N)N)NC(=O)[C@H](C(C)C)NC(=O)CN(C)C(=O)[C@H](C(C)C)NC(=O)[C@@H](CCCNC(=N)N)NC(=O)[C@H](CC(=O)O)NC(=O)[C@H](Cc2ccc(O)cc2)NC(=O)CN(C)C(=O)[C@H](Cc2ccc(-c3ccccc3)cc2)NC(=O)[C@H](Cc2ccc(-c3ccccc3)cc2)NC(=O)[C@H](CN2CCOCC2)NC(=O)CSC[C@@H](C(=O)NCC(N)=O)NC1=O [Example 135] ({CH2CO}-[Ala(morpholin-4-yl)][Bip][Bip][Sar]YD[dR]V[Sar]VRLCG-NH2; thioether N-13)
0.05 to 0.2 | CC[C@H](C)[C@@H]1NC(=O)[C@@H](CCCNC(=N)NCc2cccc(O)c2)NC(=O)[C@H](CC(=O)O)NC(=O)[C@H](Cc2cnc[nH]2)NC(=O)CN(C)C(=O)[C@H](Cc2ccc(-c3ccc(NC(=O)c4cccc(CC(=O)O)c4)cc3)cc2)NC(=O)[C@H](Cc2ccc(-c3ccc(C(=O)O)cc3)cc2)NC(=O)[C@H](CC2CCCCC2)NC(=O)CSC[C@@H](C(=O)NCC(N)=O)NC(=O)[C@H](CC(C)C)NC(=O)[C@H](Cc2ncc[nH]2)NC(=O)[C@H](C(C)C)NC(=O)[C@@H]2Cc3ccccc3CN2C1=O [Example 562] ({CH2CO}-[Cha][Bip(4'-COOH)][Bip(4'-NHCO-C6H4-3-CH2COOH)][Sar]HD[dArg(ω-(3-HO-benzyl))]I[Tic]V[Ala(imidazol-2-yl)]LCG-NH2; thioether N-13)
0.2 to 2 | CC(C)C[C@@H]1NC(=O)[C@H](Cc2ccc(O)cc2)NC(=O)[C@H](C(C)C)NC(=O)[C@@H]2CCN2C(=O)[C@H](C(C)C)NC(=O)[C@H](CCCNC(=N)N)NC(=O)[C@H](CC(=O)O)NC(=O)[C@H](Cc2ccc(O)cc2)NC(=O)CN(C)C(=O)[C@H](Cc2ccc(-c3ccccc3)cc2)NC(=O)[C@H](Cc2ccc(-c3ccccc3)cc2)NC(=O)[C@H](CN2CCOCC2)NC(=O)CSC[C@@H](C(=O)NCC(N)=O)NC1=O [Example 75] ({CH2CO}-[Ala(morpholin-4-yl)][Bip][Bip][Sar]YDRV[Aze]VYLCG-NH2; thioether N-13)
0.2 to 2 | CC(C)C[C@@H]1NC(=O)[C@H](Cc2ccc(O)cc2)NC(=O)[C@H](C(C)C)NC(=O)[C@@H]2CCCN2C(=O)[C@H](C(C)C)NC(=O)[C@H](CCCNC(=N)N)NC(=O)[C@H](CC(=O)O)NC(=O)[C@H](Cc2ccc(O)cc2)NC(=O)CN(C)C(=O)[C@H](Cc2ccc(-c3ccccc3)cc2)NC(=O)[C@H](Cc2ccc(-c3ccccc3)cc2)NC(=O)[C@H](CN2CCOCC2)NC(=O)CSC[C@@H](C(=O)NCC(N)=O)NC1=O [Example 48] ({CH2CO}-[Ala(morpholin-4-yl)][Bip][Bip][Sar]YDRVPVYLCG-NH2; thioether N-13)
